Reference: the Kinase Knowledgebase extract (Sharma et al. 2016)

biological target: EGFR (UniProt P00533)
Sequence (P00533 whole entry, looked up): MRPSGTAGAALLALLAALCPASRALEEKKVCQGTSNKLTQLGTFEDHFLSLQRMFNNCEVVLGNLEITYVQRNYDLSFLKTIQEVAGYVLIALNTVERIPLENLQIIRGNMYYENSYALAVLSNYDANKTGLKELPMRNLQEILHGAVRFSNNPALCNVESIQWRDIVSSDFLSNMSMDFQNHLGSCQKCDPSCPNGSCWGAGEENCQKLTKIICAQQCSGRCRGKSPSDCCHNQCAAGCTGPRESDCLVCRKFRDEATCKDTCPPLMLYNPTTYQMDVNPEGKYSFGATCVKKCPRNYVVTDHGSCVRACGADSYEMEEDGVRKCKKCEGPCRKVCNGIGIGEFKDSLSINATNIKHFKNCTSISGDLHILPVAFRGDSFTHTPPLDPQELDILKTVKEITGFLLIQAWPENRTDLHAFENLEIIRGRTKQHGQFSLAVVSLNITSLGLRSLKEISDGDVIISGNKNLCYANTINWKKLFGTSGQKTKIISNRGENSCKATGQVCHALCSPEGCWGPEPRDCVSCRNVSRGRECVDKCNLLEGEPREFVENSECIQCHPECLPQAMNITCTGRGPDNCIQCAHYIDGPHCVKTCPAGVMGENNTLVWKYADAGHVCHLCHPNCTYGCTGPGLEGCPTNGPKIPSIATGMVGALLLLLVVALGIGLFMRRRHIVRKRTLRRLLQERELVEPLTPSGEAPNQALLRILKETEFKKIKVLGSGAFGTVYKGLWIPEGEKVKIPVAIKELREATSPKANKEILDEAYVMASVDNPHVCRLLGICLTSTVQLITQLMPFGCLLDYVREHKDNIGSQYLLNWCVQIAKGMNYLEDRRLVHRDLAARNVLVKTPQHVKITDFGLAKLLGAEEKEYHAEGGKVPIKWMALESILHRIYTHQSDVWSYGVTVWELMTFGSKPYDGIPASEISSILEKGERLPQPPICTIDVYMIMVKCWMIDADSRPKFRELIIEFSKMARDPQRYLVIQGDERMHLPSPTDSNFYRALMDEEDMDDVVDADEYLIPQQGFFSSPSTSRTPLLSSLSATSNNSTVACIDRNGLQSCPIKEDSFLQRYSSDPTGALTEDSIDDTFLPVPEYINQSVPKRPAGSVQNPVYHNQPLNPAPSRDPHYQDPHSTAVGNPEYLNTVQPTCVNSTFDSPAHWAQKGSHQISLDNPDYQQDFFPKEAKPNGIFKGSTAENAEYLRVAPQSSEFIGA

IC50 [nM] | Compound
1 to 5000 | CCc1c(NC(=O)OC[C@@H]2CCNC2)cn2ncnc(Nc3ccc4c(cnn4Cc4ccccc4)c3)c12
1 to 5000 | Cc1c(NC(=O)O[C@@H]2CCN[C@@H](CO)C2)cn2ncnc(Nc3ccc4c(cnn4Cc4cccc(F)c4)c3)c12
1 to 5000 | CCc1c(NC(=O)OCCCN2CCC[C@H](O)C2)cn2ncnc(Nc3ccc4c(cnn4Cc4ccccc4)c3)c12
1 to 5000 | CCc1c(NC(=O)O[C@@H]2CCCNC2)cn2ncnc(Nc3ccc4c(cnn4Cc4ccccc4)c3)c12
1 to 5000 | Cc1c(NC(=O)O[C@H]2CCN[C@H](CO)C2)cn2ncnc(Nc3ccc4c(cnn4Cc4cccc(F)c4)c3)c12
1 to 5000 | CCc1c(NC(=O)OCCCN2CC[C@@H](O)C2)cn2ncnc(Nc3ccc4c(cnn4Cc4ccccc4)c3)c12
1 to 5000 | CCc1c(NC(=O)OC[C@@H]2COCCN2)cn2ncnc(Nc3ccc4c(cnn4Cc4cnccn4)c3)c12
1 to 5000 | CCc1c(NC(=O)O[C@H]2CCCNC2)cn2ncnc(Nc3ccc4c(cnn4Cc4ccccc4)c3)c12
1 to 5000 | Cc1c(NC(=O)OC[C@@H](C)N)cn2ncnc(Nc3ccc4c(cnn4Cc4cccc(F)c4)c3)c12
1 to 5000 | CCc1c(NC(=O)OC[C@@H]2COCCN2)cn2ncnc(Nc3ccc4c(cnn4Cc4ncco4)c3)c12
1 to 5000 | CCc1c(NC(=O)OC[C@@H]2COCCN2)cn2ncnc(Nc3ccc4c(cnn4Cc4cccnc4)c3)c12
1 to 5000 | CCc1c(NC(=O)O[C@H]2CC[C@@H](N)CC2)cn2ncnc(Nc3ccc4c(cnn4Cc4ccccc4)c3)c12
1 to 5000 | CCc1c(NC(=O)OC[C@@H]2COCCN2)cn2ncnc(Nc3ccc4c(cnn4Cc4cscn4)c3)c12
1 to 5000 | CCc1c(NC(=O)O[C@H]2CC[C@H](CN)CC2)cn2ncnc(Nc3ccc4c(cnn4Cc4ccccc4)c3)c12
1 to 5000 | CCc1c(NC(=O)OC2CCN[C@H](CO)C2)cn2ncnc(Nc3ccc4c(cnn4Cc4ccccc4)c3)c12 (stereo not given in full)
1 to 5000 | Cc1c(NC(=O)O[C@H]2CCCNC2)cn2ncnc(Nc3ccc4c(cnn4Cc4cccc(F)c4)c3)c12
1 to 5000 | CCc1c(NC(=O)OC[C@H]2C[C@H](O)CCN2)cn2ncnc(Nc3ccc4c(cnn4Cc4ccccc4)c3)c12
1 to 5000 | CCc1c(NC(=O)OCCCN2CC[C@H](O)C2)cn2ncnc(Nc3ccc4c(cnn4Cc4ccccc4)c3)c12
1 to 5000 | CCc1c(NC(=O)OC[C@@H]2COCCN2)cn2ncnc(Nc3ccc4c(cnn4Cc4ccccn4)c3)c12
1 to 5000 | Cc1c(NC(=O)O[C@H]2CC[C@@](C)(N)CC2)cn2ncnc(Nc3ccc4c(cnn4Cc4cccc(F)c4)c3)c12
1 to 5000 | CCc1c(NC(=O)OC[C@@H]2CNCCO2)cn2ncnc(Nc3ccc4c(cnn4Cc4ccccc4)c3)c12
1 to 5000 | CCc1c(NC(=O)O[C@H]2CC[C@@](C)(N)CC2)cn2ncnc(Nc3ccc4c(cnn4Cc4ccccc4)c3)c12
1 to 5000 | Cc1c(NC(=O)OCC2COCCN2)cn2ncnc(Nc3ccc4c(cnn4Cc4cccc(F)c4)c3)c12 (stereo not given)

IC50 [nM] | Compound
1 to 5000 | CCc1c(NC(=O)O[C@@H]2CCN[C@@H](CO)C2)cn2ncnc(Nc3ccc4c(cnn4Cc4ccccc4)c3)c12
1 to 5000 | CCc1c(NC(=O)O[C@H]2CC[C@@H](CN)CC2)cn2ncnc(Nc3ccc4c(cnn4Cc4ccccc4)c3)c12
1 to 5000 | CCc1c(NC(=O)OC[C@@H]2COCCN2)cn2ncnc(Nc3ccc4c(cnn4Cc4cccs4)c3)c12
1 to 5000 | CCc1c(NC(=O)O[C@H]2CC[C@H](N)CC2)cn2ncnc(Nc3ccc4c(cnn4Cc4ccccc4)c3)c12
1 to 5000 | Cc1c(NC(=O)OC[C@H]2COCCN2)cn2ncnc(Nc3ccc4c(cnn4Cc4cccc(F)c4)c3)c12
1 to 5000 | Cc1c(NC(=O)O[C@@H]2CCCNC2)cn2ncnc(Nc3ccc4c(cnn4Cc4cccc(F)c4)c3)c12
1 to 5000 | CCc1c(NC(=O)OC[C@H]2COCCN2)cn2ncnc(Nc3ccc4c(cnn4Cc4ccccc4)c3)c12
1 to 5000 | CCc1c(NC(=O)OC[C@@H]2CCCN2C)cn2ncnc(Nc3ccc4c(cnn4Cc4ccccc4)c3)c12
1 to 5000 | Cc1c(NC(=O)O[C@H]2CC[C@@H](N)CC2)cn2ncnc(Nc3ccc4c(cnn4Cc4cccc(F)c4)c3)c12
1 to 5000 | CCc1c(NC(=O)OC[C@@H]2COCCN2)cn2ncnc(Nc3ccc4c(cnn4Cc4ccccc4)c3)c12
1 to 5000 | CCc1c(NC(=O)OC[C@@H]2COCCN2)cn2ncnc(Nc3ccc4c(cnn4Cc4ccsc4)c3)c12
1 to 5000 | CCc1c(NC(=O)OC[C@@H]2COCCN2)cn2ncnc(Nc3ccc4c(cnn4Cc4nccs4)c3)c12
1 to 5000 | CCc1c(NC(=O)OC[C@H]2CCNC2)cn2ncnc(Nc3ccc4c(cnn4Cc4ccccc4)c3)c12
1 to 5000 | CCc1c(NC(=O)OC[C@@H]2CCCN2)cn2ncnc(Nc3ccc4c(cnn4Cc4ccccc4)c3)c12
1 to 5000 | CCc1c(NC(=O)OC[C@@H]2CCN(C)C2)cn2ncnc(Nc3ccc4c(cnn4Cc4ccccc4)c3)c12
1 to 5000 | CCc1c(NC(=O)OC[C@@H]2COCCN2)cn2ncnc(Nc3ccc4c(cnn4Cc4cccc(F)c4)c3)c12
1 to 5000 | Cc1c(NC(=O)O[C@H]2CC[C@H](N)CC2)cn2ncnc(Nc3ccc4c(cnn4Cc4cccc(F)c4)c3)c12
1 to 5000 | Cc1c(NC(=O)OC[C@H](C)N)cn2ncnc(Nc3ccc4c(cnn4Cc4cccc(F)c4)c3)c12
1 to 5000 | CCc1c(NC(=O)OC[C@H]2CCCN2)cn2ncnc(Nc3ccc4c(cnn4Cc4ccccc4)c3)c12
1 to 5000 | Cc1c(NC(=O)OC[C@@H]2COCCN2)cn2ncnc(Nc3ccc4c(cnn4Cc4cccc(F)c4)c3)c12
1 to 5000 | Cc1c(NC(=O)OC[C@@H]2COCCN2C(=O)OC(C)(C)C)cn2ncnc(Nc3ccc4c(cnn4Cc4cccc(F)c4)c3)c12
1 to 5000 | CCc1c(NC(=O)OC[C@H]2CNCCO2)cn2ncnc(Nc3ccc4c(cnn4Cc4ccccc4)c3)c12
